Literature values as cited in patent US7390502B2, “SN-38 lipid complexes and their methods of use” (NeoPharm, Inc., priority 2000, dated 2008).

Experiments:
[1] = tends to precipitate into aqueous phase
[2] = system: topoisomerase I purified from human and rodent tumor cell lines; conditions: versus irinotecan; enzyme purified from human and rodent tumor cell lines
[3] = aqueous solutions / water
[4] = versus irinotecan

CCc1c2c(nc3ccc(O)cc13)-c1cc3c(c(=O)n1C2)COC(=O)[C@]3(O)CC [SN-38, 7-ethyl-10-hydroxycamptothecin]
affinity for lipid membranes [1]: low affinity | potency relative to irinotecan as an inhibitor of topoisomerase I [2]: approximately 1000 times | solubility in aqueous solutions [3]: exceedingly insoluble | potency relative to irinotecan in in vitro cytotoxicity assays [4]: up to 2,000 fold
